Values of other authors in patent publication US20050232952A1, “Self emulsifying drug delivery systems for poorly soluble drugs” (priority 2002, published 2005).

Conditions: humans

systemic bioavailability after oral paclitaxel administration: less than 6%
SMILES: CC(=O)O[C@H]1C(=O)[C@@]2(C)[C@H]([C@H](OC(=O)c3ccccc3)[C@]3(O)C[C@H](OC(=O)[C@H](O)[C@@H](NC(=O)c4ccccc4)c4ccccc4)C(C)=C1C3(C)C)[C@]1(OC(C)=O)CO[C@@H]1C[C@@H]2O [paclitaxel, Paclitaxel]
